# Laboratory results: ChEMBL document CHEMBL4627310, “Design, synthesis and biological evaluation of 3-nitro-1,8-naphthalimides as potential antitumor agents” (Bioorg Med Chem Lett, 2020)
# Legend:
# [1] = system: T-24; assay: Antiproliferative activity against human T24 cells assessed as cell growth inhibition measured after 48 hrs by MTT assay; assay type: functional, cell-based; conditions: T-24, 48 h
# [2] = system: L02; assay: Cytotoxicity against human HL7702 cells assessed as cell growth inhibition measured after 48 hrs by MTT assay; assay type: cell-based; conditions: L02, 48 h
# [3] = system: SK-OV-3; assay: Antiproliferative activity against human SKOV3 cells assessed as cell growth inhibition measured after 48 hrs by MTT assay; assay type: functional, cell-based; conditions: SK-OV-3, 48 h
# [4] = system: SMMC-7721; assay: Antiproliferative activity against human SMMC7721 cells assessed as cell growth inhibition measured after 48 hrs by MTT assay; assay type: functional, cell-based; conditions: SMMC-7721, 48 h
# [5] = system: A549; assay: Antiproliferative activity against human A549 cells assessed as cell growth inhibition measured after 48 hrs by MTT assay; assay type: functional, cell-based; conditions: A549, 48 h
# [6] = system: HepG2; assay: Antiproliferative activity against human HepG2 cells assessed as cell growth inhibition measured after 48 hrs by MTT assay; assay type: functional, cell-based; conditions: HepG2, 48 h
IC50 [3],IC50 [4],IC50 [5],IC50 [6],Structure (SMILES),IC50 [1],IC50 [2]
28.2 µM,26.6 µM,19.8 µM,10.3 µM,CNCCCN1C(=O)c2cccc3cc([N+](=O)[O-])cc(c23)C1=O,9.03 µM,14.3 µM
48.2 µM,> 100 µM,30 µM,42.7 µM,O=C1c2cccc3cc([N+](=O)[O-])cc(c23)C(=O)N1Nc1ccccn1,57.6 µM,82.4 µM
